The values that follow come from patent US8883720B2, “Template-fixed beta-hairpin peptidomimetics with CXCR4 antagonizing activity” (Polyphor AG, priority 2008, dated 2014).

Molecules are shown by their SMILES. Numbered stars: 1 amine (or outer) side, 2 acyl side, 3 side chain; on linkers, the order of the positions; unused ones are H or OH. Bridge positions count the residues as written; N and C are the ends. Square brackets hold non-standard residues; d marks the D form. Peptide text beside a SMILES is read from it. Abu(3S-NH2) = C[C@H](N)[C@H](N)C(=O)O; X1 = NCC[C@H](O[*:1])C(=O)[*:2]; Lac = C[C@H](O)C(=O)O

Data set [1] deals with T1, human CXCR4 (Homo sapiens, UniProt P61073).
T1 construct: expressed in transfected cells; host or cells: mouse pre-B cell line 300-19
Kind of data set: Ca2+-assay: CXCR4-antagonizing activity (SDF-1 induced calcium mobilization). Particulars: mouse pre-B cell line 300-19 stably transfected with human CXCR4, read-out: IC50% [nM] ± SD, CXCR4 receptor. In kind it is cell-based. The text has this:
2.3. Ca^2+-Assay: CXCR4-Antagonizing Activity of the Depsipeptides
Increases in intracellular calcium were monitored using a Flexstation 384 (Molecular Devices, Sunnyvale, Calif.) to assay the depsipeptides for CXCR4 antagonism in a mouse pre-B cell line 300-19 stably transfected with human CXCR4 (E. Oberlin, A. Amara, F. Bachelerie, C. Bessia, J.-L. Virelizier, F. Arenzana-Seisdedos, O. Schwartz, J.-M. Heard, I. Clark-Lewis, D. F. Legler, M. Loetscher, M. Baggiolini, B. Moser, Nature 1996, 382, 833-835; M. Loetscher, T. Geiser, T. O'Reilly, R. Zwalen, M. Baggiolini, B. Moser, J. Biol. Chem. 1994, 269, 232-237; M. D'Apuuo, A. Rolink, M. Loetscher, J. A. Hoxie, I. Clark-Lewis, F. Melchors, M. Baggiolini, B. Moser, Eur. J. Immunol. 1997, 27, 1788-1793). The cells were batch loaded with the Calcium 4 Assay kit (Molecular Devices) in assay buffer (Hanks Balanced salt solution [HBSS], 20 mM HEPES, pH 7.4, 0.1% BSA) for 1 h at room temperature and labeled cells were dispensed into black well assays plates (Costar No. 3603). Calcium mobilization induced by stromal-derived factor-1 (SDF-1) was measured in the Flexstation 384 (excitation: 485 nm; emission: 525 nm) for 90 seconds. Antagonist activity of depsipeptides was determined by spiking the cells with compounds prior to SDF-1 addition. Dose response curves (compound concentration versus % maximum response for SDF-1) were determined for each antagonist and IC50 values were calculated by fitting the data to a four parameter logistic equation using SoftmaxPro 4.8 (Molecular Devices).

Data set [2] is described as follows: in vitro. In kind it is cell-based. The protocol: The cytotoxicity of the depsipeptides to HELA cells (Acc57) and COS-7 cells (CRL-1651) was determined using the MTT reduction assay (T. Mossman, J. Immunol. Meth. 1983, 65, 55-63; M. V. Berridge, A. S. Tan, Arch. Biochem. Biophys. 1993, 303, 474-482). Briefly, the method was as follows: 7000 HELA cells/well and 4500 COS-7 cells/well were seeded and grown in 96-well microtiter plates for 24 h at 37° C. at 5% CO2. Thereafter, time zero (Tz) was determined by MTT reduction (see below). The supernatant of the remaining wells was discarded, and fresh medium and compounds in serial dilutions (12.5, 25 and 50 μM, triplicates) were pipetted into the wells. After incubation of the cells for 48 h at 37° C. at 5% CO2 the supernatant was discarded again and 100 μL MTT reagent (0.5 mg/mL in RPMI1640 and DMEM, respectively)/well was added. Following incubation at 37° C. for 2 h the media were aspirated and the cells were spiked (100 μL isopropanol/well). The absorbance of the solubilized formazan was measured at 595 nm (OD595peptide). For each concentration averages were calculated from triplicates. The percentage of growth was calculated as follows: (OD595peptide-OD595Tz-OD595Empty well)/(OD595Tz-OD595Empty well)×100%. The GI50 (Growth Inhibition) concentrations were calculated for each depsipeptide by using a trend line function for the concentrations (50, 25, 12.5 and 0 μM), the corresponding percentages and the value 50, (=TREND (C50:C0, %50:%0, 50).

A short description of data set [3]: Plasma stability, mouse plasma. It is filed as in vitro ADME. The note with it: 37° C., sampled up to 240 min, read-out: Plasmastability mouse pl. T1/2. As for the experimental part:
(§1) The stability of the depsipeptides in human and mouse plasma was determined by applying the following method: 315 μL/deep well of freshly thawed human plasma (Basler Blutspende-dienst) and mouse plasma (Harlan Sera-Lab, UK), respectively, were spiked with 35 μL/well of compound in PBS (100 μM, triplicate) and incubated at 37° C. At t=0, 15, 30, 60, 120 and 240 min aliquots of 50 μL were transferred to filtration plate wells containing 150 μL/well of acetonitrile. Following shaking for 2 min the occurred suspensions were filtrated by vacuum and finally, 100 μL of each filtrate were transferred to a propylene microtiter plate, and analyzed by LC/MS as follows: Column: Waters, XBridge C18, mobile phases: (A) water+0.1% formic acid and (B) acetonitrile/water, 95/5 (v/v)+0.1% formic acid, gradient: 5%-100% (B) in 2 minutes, electrospray ionization, MRM detection (triple quadrupole). The peak areas were determined and triplicate values are averaged. The stability is expressed in percent of the initial value at t=0. (tx/t0×100). By using the TREND function of EXCEL (Microsoft Office 2003) T1/2 were determined.

For data set [4], the system named is human red blood cells (hRBC). In kind it is cell-based. Particulars: red cells of human, 1 h. As for the experimental part:
2.5. Hemolysis The depsipeptides were tested for their hemolytic activity against human red blood cells (hRBC). Fresh hRBC were washed three times with phosphate buffered saline (PBS) and centrifuged for 10 min at 2000×g. Compounds (100 μM) were incubated with 20% hRBC (v/v) for 1 h at 37° C. The final erythrocyte concentration was approximately 0.9×10^9 cells/mL. A value of 0% and 100% cell lyses, respectively, was determined by incubation of hRBC in the presence of PBS alone and 0.1% Triton X-100 in H2O, respectively. The samples were centrifuged, the supernatants were 20-fold diluted in PBS buffer and the optical densities (OD) were measured at 540 nm. The 100% lyses value (OD540H2O) gave an OD540 of approximately 1.3-1.8. Percent hemolysis was calculated as follows: (OD540peptide/OD540H2O)×100%.

Data set [5] is described as follows: Plasma stability, human plasma. In kind it is in vitro ADME. The note with it: 37° C., sampled up to 240 min, read-out: Plasmastability human pl. T1/2. The protocol:
as §1

T1 sequence (P61073 whole entry): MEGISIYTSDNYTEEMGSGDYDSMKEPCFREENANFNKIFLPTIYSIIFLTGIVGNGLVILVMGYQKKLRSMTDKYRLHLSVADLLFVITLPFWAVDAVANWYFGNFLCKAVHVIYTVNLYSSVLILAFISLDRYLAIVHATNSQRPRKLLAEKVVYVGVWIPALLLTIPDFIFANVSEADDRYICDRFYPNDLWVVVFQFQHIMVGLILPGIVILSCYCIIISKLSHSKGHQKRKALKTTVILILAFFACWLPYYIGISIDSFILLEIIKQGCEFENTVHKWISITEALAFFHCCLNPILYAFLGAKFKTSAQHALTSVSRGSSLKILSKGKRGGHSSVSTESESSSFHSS

In the case of `C[C@@H]1NC(=O)[C@H](Cc2c[nH]cn2)NC(=O)[C@H](Cc2ccc(O)cc2)NC(=O)[C@@H]2CCCN2C(=O)[C@H]2CCCN2C(=O)[C@H](CCCCN)NC(=O)[C@H](CCC(N)=O)NC(=O)[C@H](Cc2ccc(O)cc2)NC(=O)[C@@H]2CSSC[C@H](NC1=O)C(=O)N[C@H](CO)C(=O)O[C@@H](C)C(=O)N1CCC[C@@H]1C(=O)N[C@@H]([C@H](C)N)C(=O)N[C@@H](CCCNC(=N)N)C(=O)N[C@@H](Cc1ccc(O)cc1)C(=O)N2` [Example 7] (cyclo(YHAC[dS][Lac][dP][Abu(3S-NH2)]RYCYQK[dP]P); disulfide 4-11), the IC50 in data set [1] came to 2.1 ± 0.5 nM. Moreover, the GI50 at 48 h in data set [2] (African green monkey) and in data set [2] (human) was > 50 µM each time. Further, the results for the half-life at 10 μM in data set [3] and in data set [5] were 51 min and 62 min, respectively. Besides, in data set [4], the “Hemolysis at 100 μM” value amounted to 0.2%.
Regarding `C[C@@H]1NC(=O)[C@H](CCCNC(=N)N)NC(=O)[C@@H]2CSSC[C@H](NC(=O)[C@H](Cc3ccc(O)cc3)NC(=O)[C@H](CCCNC(=N)N)NC(=O)[C@H]([C@H](C)N)NC(=O)[C@H]3CCCN3C1=O)C(=O)N[C@@H](Cc1ccc(O)cc1)C(=O)N[C@@H](CCC(N)=O)C(=O)N[C@@H](CCCCN)C(=O)N1CCC[C@@H]1C(=O)N1CCC[C@H]1C(=O)N[C@@H](Cc1ccc(O)cc1)C(=O)N[C@@H](Cc1c[nH]cn1)C(=O)O[C@@H](C)C(=O)N2` [Example 9] (cyclo(YH[Lac]CRA[dP][Abu(3S-NH2)]RYCYQK[dP]P); disulfide 4-11), the 50% inhibitory concentration (IC50) in data set [1] worked out at 20.8 ± 8.3 nM. The GI50 at 48 h in data set [2] (African green monkey) and in data set [2] (human) was > 50 µM each time. In addition, the half-life at 10 μM in data set [3] amounted to 74 min; in data set [5], 85 min. Moreover, the “Hemolysis at 100 μM” value in data set [4] stood at 0.4%.
Regarding `C[C@@H]1NC(=O)[C@H](Cc2c[nH]cn2)NC(=O)[C@H](Cc2ccc(O)cc2)NC(=O)[C@@H]2CCCN2C(=O)[C@H]2CCCN2C(=O)[C@H](CCN)OC(=O)[C@@H](CCC(N)=O)NC(=O)[C@H](Cc2ccc(O)cc2)NC(=O)[C@@H]2CSSC[C@H](NC1=O)C(=O)N[C@@H](CCCNC(=N)N)C(=O)N[C@@H](C)C(=O)N1CCC[C@@H]1C(=O)N[C@@H]([C@H](C)N)C(=O)N[C@@H](CCCNC(=N)N)C(=O)N[C@@H](Cc1ccc(O)cc1)C(=O)N2` [Example 10] (cyclo(YHACRA[dP][Abu(3S-NH2)]RYCY[dQ][X1][dP]P); disulfide 4-11), the IC50 in data set [1] is 16.6 ± 1.5 nM. The GI50 at 48 h in data set [2] (African green monkey) and in data set [2] (human) was > 50 µM each time. Further, the half-life at 10 μM in data set [3] was 5.3 min; in data set [5], 5.1 min. Moreover, the “Hemolysis at 100 μM” value in data set [4] was found to be 0.3%.
